Experimental data taken from the supplement of paper PMC10307832.

Legend:
Experiment in all cases: relative viability (nuclei count vs DMSO), 5 days (fraction); higher = more cells survive
JZL-184 + Vorinostat = compound: C1CN(CCC1C(C2=CC3=C(C=C2)OCO3)(C4=CC5=C(C=C4)OCO5)O)C(=O)OC6=CC=C(C=C6)[N+](=O)[O-] [JZL-184] + O=C(CCCCCCC(=O)Nc1ccccc1)NO [Vorinostat] (partner 1 µM)
Outline: (§1)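 Values are medians from duplicate plates. Each reflects relative viability, defined as the nuclei count of treated wells over that of vehicle wells. Lung cancer cell lines in 1536-well plates were pin-tool dosed one day after seeding with one drug alone or with a fixed anchor-drug dose plus five library-drug doses (not always all listed) in √10 steps, then fixed, stained and imaged at 4× after 5 days.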

JZL-184 + Olaparib = compound: C1CN(CCC1C(C2=CC3=C(C=C2)OCO3)(C4=CC5=C(C=C4)OCO5)O)C(=O)OC6=CC=C(C=C6)[N+](=O)[O-] [JZL-184] + O=C(c1cc(Cc2n[nH]c(=O)c3ccccc23)ccc1F)N1CCN(C(=O)C2CC2)CC1 [Olaparib] (partner 8 µM)
Outline: as §1

JZL-184 + Pemetrexed = compound: C1CN(CCC1C(C2=CC3=C(C=C2)OCO3)(C4=CC5=C(C=C4)OCO5)O)C(=O)OC6=CC=C(C=C6)[N+](=O)[O-] [JZL-184] + Nc1nc2[nH]cc(CCc3ccc(C(=O)N[C@@H](CCC(=O)O)C(=O)O)cc3)c2c(=O)[nH]1 [Pemetrexed] (partner 0.2 µM)
Outline: as §1

JZL-184 + Decitabine = compound: C1CN(CCC1C(C2=CC3=C(C=C2)OCO3)(C4=CC5=C(C=C4)OCO5)O)C(=O)OC6=CC=C(C=C6)[N+](=O)[O-] [JZL-184] + Nc1ncn([C@H]2C[C@H](O)[C@@H](CO)O2)c(=O)n1 [Decitabine] (partner 2 µM)
Outline: as §1

JZL-184 + Alpelisib = compound: C1CN(CCC1C(C2=CC3=C(C=C2)OCO3)(C4=CC5=C(C=C4)OCO5)O)C(=O)OC6=CC=C(C=C6)[N+](=O)[O-] [JZL-184] + Cc1nc(NC(=O)N2CCC[C@H]2C(N)=O)sc1-c1ccnc(C(C)(C)C(F)(F)F)c1 [Alpelisib] (partner 2 µM)
Outline: as §1

| Cell Line | relative viability (JZL-184 + Vorinostat; first compound 0.04 µM) | relative viability (JZL-184 + Vorinostat; first compound 0.4 µM) | relative viability (JZL-184 + Vorinostat; first compound 1.265 µM) | relative viability (JZL-184 + Vorinostat; first compound 4 µM) | relative viability (JZL-184 + Olaparib; first compound 0.04 µM) | relative viability (JZL-184 + Olaparib; first compound 0.4 µM) | relative viability (JZL-184 + Olaparib; first compound 1.265 µM) | relative viability (JZL-184 + Olaparib; first compound 4 µM) | relative viability (JZL-184 + Pemetrexed; first compound 0.04 µM) | relative viability (JZL-184 + Pemetrexed; first compound 0.4 µM) | relative viability (JZL-184 + Pemetrexed; first compound 1.265 µM) | relative viability (JZL-184 + Pemetrexed; first compound 4 µM) | relative viability (JZL-184 + Decitabine; first compound 0.04 µM) | relative viability (JZL-184 + Decitabine; first compound 0.4 µM) | relative viability (JZL-184 + Decitabine; first compound 1.265 µM) | relative viability (JZL-184 + Decitabine; first compound 4 µM) | relative viability (JZL-184 + Alpelisib; first compound 0.04 µM) | relative viability (JZL-184 + Alpelisib; first compound 0.4 µM) | relative viability (JZL-184 + Alpelisib; first compound 1.265 µM) | relative viability (JZL-184 + Alpelisib; first compound 4 µM) |
| --- | --- | --- | --- | --- | --- | --- | --- | --- | --- | --- | --- | --- | --- | --- | --- | --- | --- | --- | --- | --- |
| LXF-289 | 0.771 | 0.734 | 0.755 | 0.669 | 1.16 | 1.06 | 1.01 | 0.975 | 0.882 | 0.779 | 0.862 | 0.875 | 0.438 | 0.364 | 0.353 | 0.388 | 0.977 | 1.05 | 1.06 | 0.951 |
| BEN | 0.538 | 0.524 | 0.538 | 0.594 | 1.15 | 1.01 | 1.24 | 1.03 | 0.811 | 0.787 | 0.887 | 1.02 | 0.742 | 0.537 | 0.78 | 0.767 | 1.18 | 0.998 | 1.12 | 1.03 |
| NCI-H2023 | 0.766 | 0.587 | 0.588 | 0.44 | 0.529 | 0.466 | 0.484 | 0.44 | 0.281 | 0.167 | 0.258 | 0.227 | 0.254 | 0.225 | 0.175 | 0.213 | 0.654 | 0.593 | 0.568 | 0.593 |
| NCI-H661 | 0.865 | 0.714 | 0.975 | 0.772 | 0.825 | 0.712 | 0.731 | 0.748 | 0.983 | 0.858 | 0.931 | 0.898 | 0.624 | 0.526 | 0.518 | 0.537 | 0.453 | 0.483 | 0.707 | 0.717 |
| NCI-H1355 | 0.684 | 0.63 | 0.672 | 0.618 | 0.775 | 0.708 | 0.78 | 0.707 | 1.06 | 0.945 | 1.05 | 1.04 | 0.349 | 0.34 | 0.36 | 0.347 | 0.774 | 0.826 | 0.828 | 0.81 |
| NCI-H1793 | 0.663 | 0.571 | 0.963 | 0.64 | 0.978 | 0.911 | 0.933 | 0.861 | 0.936 | 0.801 | 0.982 | 0.735 | 0.533 | 0.441 | 0.507 | 0.462 | 0.689 | 0.706 | 0.77 | 0.691 |
| COR-L 105 | 0.789 | 0.8 | 0.905 | 0.82 | 0.686 | 0.775 | 0.663 | 0.679 | 1.23 | 1.07 | 1.18 | 1.09 | 0.686 | 0.648 | 0.613 | 0.611 | 0.998 | 1.2 | 0.837 | 0.916 |
| NCI-H838 | 0.791 | 0.72 | 0.738 | 0.636 | 0.994 | 0.737 | 0.766 | 0.722 | 0.254 | 0.236 | 0.241 | 0.256 | 0.551 | 0.475 | 0.465 | 0.467 | 1.08 | 1.09 | 1.03 | 0.957 |
